The values that follow come from ChEMBL document CHEMBL1777780, “Discovery of XEN907, a spirooxindole blocker of NaV1.7 for the treatment of pain” (Bioorg Med Chem Lett, 2011).

A short description of data set [1]: Permeability from apical to basolateral side in human Caco2 cells. Type of data set: ADME, cell-based. The following applies: Caco-2, read-out: permeability. In general terms: Caco-2 monolayers are a common model of the intestinal barrier.
Data set [2] is described as follows: Permeability from basolateral to apical side in human Caco2 cells. It counts as ADME, cell-based. The following applies: Caco-2, read-out: permeability.
Data set [3] is described as follows: Volume of distribution at steady state in Lewis rat at 3 mg/kg, iv. Also noted: dose 3 mg/kg, route intravenous. It counts as ADME, organism-based. To be noted: in vivo, read-out: Vdss.
The nature of data set [4]: AUClast in Lewis rat at 10 mg/kg, po. Type of data set: ADME, organism-based. More on the design: time 0 - last, dose 10 mg/kg, route oral. To be noted: plasma.
Data set [5] in a line: Metabolic stability in dog hepatocytes assessed as compound remaining after 2 hrs. Type of data set: ADME, cell-based, Canis lupus familiaris, Hepatocyte. To be noted: read-out: Stability.
The nature of data set [6]: Metabolic stability in rat hepatocytes assessed as compound remaining after 2 hrs. It counts as ADME, cell-based, Hepatocyte. To be noted: read-out: Stability.
Data set [7] is described as follows: Oral bioavailability in Lewis rat at 10 mg/kg. The following applies: in vivo. It counts as ADME, organism-based.
Data set [8] is described as follows: Tmax in Lewis rat at 10 mg/kg, po. Also noted: dose 10 mg/kg, route oral. It counts as ADME, organism-based. The following applies: in vivo.
A short description of data set [9]: Cmax in Lewis rat at 3 mg/kg, iv. More on the design: dose 3 mg/kg, route intravenous. To be noted: in vivo. It counts as ADME, organism-based.
Data set [10] is described as follows: Clearance in Lewis rat at 3 mg/kg, iv. Type of data set: ADME, organism-based. More on the design: dose 3 mg/kg, route intravenous. The following applies: in vivo.
A short description of data set [11]: Cmax in Lewis rat at 10 mg/kg, po. It counts as ADME, organism-based. The following applies: in vivo. More on the design: dose 10 mg/kg, route oral.
Data set [12] is described as follows: Metabolic stability in human hepatocytes assessed as compound remaining after 2 hrs. To be noted: read-out: Stability. Type of data set: ADME, cell-based, Hepatocyte.
A short description of data set [13]: AUClast in Lewis rat at 3 mg/kg, iv. Type of data set: ADME, organism-based. Also noted: time 0 - last, dose 3 mg/kg, route intravenous. To be noted: plasma.
Data set [14] can be described thus: Half life in Lewis rat at 3 mg/kg, iv. Type of data set: ADME, organism-based. Also noted: dose 3 mg/kg, route intravenous. The following applies: in vivo.

`O=C1N(Cc2ccc(Cl)cc2)c2ccccc2C1(O)c1ccc2c(c1)OCO2` (configuration not stated): the Papp A→B in data set [1] was 9 ×10⁻⁶ cm/s. In addition, the Papp B→A in data set [2] turned out to be 10.9 ×10⁻⁶ cm/s.
The like results for `O=C1N(Cc2ccc(Cl)cc2)c2ccccc2C1(O)c1ccc2c(c1)OCCO2` (configuration not stated) were, in that order, 1.9 ×10⁻⁶ cm/s and 3.5 ×10⁻⁶ cm/s.
As for `O=C1N(Cc2ccc(Cl)cc2)c2ccccc2C1(O)c1ccccc1` (configuration not stated), the Papp A→B in data set [1] worked out at 13.1 ×10⁻⁶ cm/s. Also, in data set [2], the Papp B→A was 12.5 ×10⁻⁶ cm/s.
The like results for `O=C1N(CCC2CC2)c2ccccc2C1(O)c1ccc2c(c1)OCO2` (configuration not stated) were, in that order, 19.9 ×10⁻⁶ cm/s and 19.8 ×10⁻⁶ cm/s.
The corresponding values for `CCCCCN1C(=O)C(O)(c2ccc3c(c2)OCO3)c2ccccc21` (configuration not stated) are 28.9 ×10⁻⁶ cm/s and 25.4 ×10⁻⁶ cm/s.
The corresponding values for `CCC(C)CCN1C(=O)C(O)(c2ccc3c(c2)OCO3)c2ccccc21` (configuration not stated) are 10.5 ×10⁻⁶ cm/s and 11.5 ×10⁻⁶ cm/s.
Take `COc1ccc(CN2C(=O)C(O)(c3ccc4c(c3)OCO4)c3ccccc32)cc1` (configuration not stated): in [1], the Papp A→B turned out to be 6.5 ×10⁻⁶ cm/s. Moreover, the Papp B→A in [2] is 11.9 ×10⁻⁶ cm/s.
The corresponding values for `O=C1N(Cc2ccccc2)c2ccccc2C1(O)c1ccc2c(c1)OCO2` (configuration not stated) are 9.3 ×10⁻⁶ cm/s and 13.6 ×10⁻⁶ cm/s.
The corresponding values for `O=C1N(Cc2ccc3c(c2)OCO3)c2ccccc2C1(O)c1ccc2c(c1)OCO2` (configuration not stated) are 7.7 ×10⁻⁶ cm/s and 12.1 ×10⁻⁶ cm/s.
The corresponding values for `O=C1N(CC2CCC2)c2ccccc2C1(O)c1ccc2c(c1)OCO2` (configuration not stated) are 21.7 ×10⁻⁶ cm/s and 21.1 ×10⁻⁶ cm/s.
For `O=C1N(Cc2ccc(C(F)(F)F)cc2)c2ccccc2C1(O)c1ccc2c(c1)OCO2` (configuration not stated), the Papp A→B in [1] turned out to be 5.4 ×10⁻⁶ cm/s. Moreover, the Papp B→A in data set [2] came out at 7.9 ×10⁻⁶ cm/s.
The like results for `CCCCCN1C(=O)C(C)(c2ccc3c(c2)OCO3)c2ccccc21` (configuration not stated) were, in that order, 2.4 ×10⁻⁶ cm/s and 3.6 ×10⁻⁶ cm/s.
The like results for `CCCCCN1C(=O)C(N)(c2ccc3c(c2)OCO3)c2ccccc21` (configuration not stated) were, in that order, 22 ×10⁻⁶ cm/s and 22.3 ×10⁻⁶ cm/s.
One may read the AUC(0-t) as the area under the concentration-time curve up to a stated or last time point. The low end stands for less exposure, the high end for more exposure. What is called bioavailability is the share of a dose that reaches the circulation, judged against a reference dose that is usually intravenous. Broadly, the Tmax is the time from dosing to the highest level. For orientation: Cmax means the maximum level reached in the sampled fluid or tissue. As a reminder, the clearance is a measure of how efficiently the substance is removed, as volume per time. Higher therefore signals efficient removal. A word on the half-life: it is how long it takes for the measured level to halve. Consider `CCCCCN1C(=O)C2(COc3cc4c(cc32)OCO4)c2ccccc21` (configuration not stated), for which, in [3], the Vd amounted to 35 L/kg. Also, the Papp A→B in data set [1] was 5.9 ×10⁻⁶ cm/s. Besides, the AUC(0-t) in data set [4] is 143 ng·h/mL; in data set [13] it was 320 ng·h/mL. For the same compound, the remaining at 2 h was 46% in [5], 21% in data set [6] and 34% in data set [12]. The Papp B→A in data set [2] was found to be 7.2 ×10⁻⁶ cm/s. This compound registered a bioavailability in data set [7] of 13%. Besides, the Tmax in [8] was found to be 0.33 h. Moreover, the Cmax was 953 ng/mL in data set [9] and 35 ng/mL in data set [11]. The same compound gave a clearance in [10] of 157 mL/min/kg. The compound also showed a half-life in data set [14] of 2.6 h.
For the compound `CCCCCN1C(=O)C2(CCc3cc4c(cc32)OCO4)c2ccccc21` (configuration not stated), in data set [1], the Papp A→B was 1.1 ×10⁻⁶ cm/s. In data set [2], the Papp B→A is 1.6 ×10⁻⁶ cm/s.
